Among the data in patent US20240279236A1, “COMPOUNDS AND METHODS OF TREATING TUBERCULOSIS” (Fimbrion Therapeutics, Inc., priority 2021, published 2024) are IC50 values, retold here.

Each structure is given as a SMILES string. Bounds are passed on as bounds.

For this assay, the system named is WT Mtb Erdman strain. Description: Microplate Alamar Blue Assay (MABA), Mtb growth inhibition. The class given is cell-based, Mycobacterium tuberculosis. The note with it: Mycobacterium tuberculosis, ERDMAN, 168 h, Middlebrook 7H9 media, 7 days at 37° C. in 5% CO2. (Resazurin is reduced to fluorescent resorufin, in cell work by metabolically active cells.)
For `Cc1nc2c(N[C@@H]3C[C@H]3c3ccc(F)c(F)c3)nc(-c3ccc(F)cn3)nc2s1` [Example 146, N-((1R,2S)-2-(3,4-difluorophenyl)cyclopropyl)-5-(5-fluoropyridin-2-yl)-2-methylthiazolo[5,4-d]pyrimidin-7-amine], the IC50 (commonly the concentration needed to halve the response being measured) amounted to 5.1 µM.

Regarding `Cc1nc2c(NCCCc3ccccc3)nc(-c3ccc(F)cn3)nc2s1` [Example 147, 5-(5-fluoropyridin-2-yl)-2-methyl-N-(3-phenylpropyl)thiazolo [5,4-d]pyrimidin-7-amine], the IC50 was 2.1 µM.

Molecule `Cc1nc2c(N[C@@H]3C[C@H]3c3ccc(F)c(F)c3)nc(-c3ccncn3)nc2s1` [Example 148, N-((1R,2S)-2-(3,4-difluorophenyl)cyclopropyl)-2-methyl-5-(pyrimidin-4-yl)thiazolo[5,4-d]pyrimidin-7-amine] registered an IC50 greater than 10 µM.

As for `Cc1nc2c(NCCCc3ccccc3)nc(-c3ccncn3)nc2s1` [Example 149, 2-methyl-N-(3-phenylpropyl)-5-(pyrimidin-4-yl)thiazolo[5,4-d]pyrimidin-7-amine], the IC50 worked out at 2 µM.

Turning to `CCOc1nc(N[C@@H]2C[C@H]2c2ccc(F)c(F)c2)c2cc(C)sc2n1` [Example 150, N-((1R,2S)-2-(3,4-difluorophenyl)cyclopropyl)-2-ethoxy-6-methylthieno[2,3-d]pyrimidin-4-amine], half-maximal inhibition (IC50) required 0.38 µM.

For `COc1nc(N[C@@H]2C[C@H]2c2ccc(F)c(F)c2)c2cc(C)sc2n1` [Example 151, N-((1R,2S)-2-(3,4-difluorophenyl)cyclopropyl)-2-methoxy-6-methylthieno[2,3-d]pyrimidin-4-amine], the IC50 was 0.26 µM.

`Cc1cc2c(NC/C=C/c3ccccc3)nc(C(F)(F)F)nc2s1` [Example 152, N-cinnamyl-6-methyl-2-(trifluoromethyl) thieno[2,3-d] pyrimidin-4-amine] showed an IC50 of 0.44 µM.

As to `Cc1cc2c(N[C@@H]3C[C@H]3c3ccc(F)c(F)c3)nc(Oc3ccccc3)nc2s1` [Example 153, N-((1R,2S)-2-(3,4-difluorophenyl)cyclopropyl)-6-methyl-2-phenoxythieno[2,3-d]pyrimidin-4-amine], the IC50 is greater than 10 µM.

The molecule `Cc1cc2c(NCCCc3ccccc3)nc(Sc3ccccc3)nc2s1` [Example 154, 6-methyl-N-(3-phenylpropyl)-2-(phenylthio)thieno[2,3-d]pyrimidin-4-amine] displayed an IC50 greater than 10 µM.

The molecule `Cc1cc2c(N[C@@H]3C[C@H]3c3ccc(F)c(F)c3)nc(Sc3ccccc3)nc2s1` [Example 155, N-((1R,2S)-2-(3,4-difluorophenyl)cyclopropyl)-6-methyl-2-(phenylthio)thieno[2,3-d]pyrimidin-4-amine] came in with an IC50 greater than 10 µM.

On to `Cc1cc2c(NCCCc3ccccc3)nc(N=[N+]=[N-])nc2s1` [Example 156, 2-azido-6-methyl-N-(3-phenylpropyl)thieno [2,3-d]pyrimidin-4-amine], for which the IC50 was 0.16 µM.

In turn, `Cc1cc2c(NCCCc3ccncc3)nc(C(F)(F)F)nc2s1` [Example 157, 6-methyl-N-(3-(pyridin-4-yl)propyl)-2-(trifluoromethyl) thieno[2,3-d] pyrimidin-4-amine] had an IC50 greater than 10 µM.

The molecule `Cc1cc2c(NCCCc3cccnc3)nc(C(F)(F)F)nc2s1` [Example 158, 6-methyl-N-(3-(pyridin-3-yl)propyl)-2-(trifluoromethyl) thieno[2,3-d] pyrimidin-4-amine] gave an IC50 greater than 6.9 µM.

As to `Cc1cc2c(NCCCc3ccccn3)nc(C(F)(F)F)nc2s1` [Example 159, 6-methyl-N-(3-(pyridin-2-yl)propyl)-2-(trifluoromethyl)thieno [2,3-d]pyrimidin-4-amine], the IC50 was greater than 10 µM.

`Cc1cc2c(NCCC(c3ccccc3)c3ccccc3)nc(C(F)(F)F)nc2s1` [Example 160, N-(3,3-diphenylpropyl)-6-methyl-2-(trifluoromethyl) thieno[2,3-d] pyrimidin-4-amine] displayed a concentration for half-maximal inhibition (IC50) of 1.1 µM.

Consider `COc1ccccc1CCCNc1nc(C(F)(F)F)nc2sc(C)cc12` [Example 161, N-(3-(2-methoxyphenyl)propyl)-6-methyl-2-(trifluoromethyl) thieno[2,3-d]pyrimidin-4-amine], for which the IC50 stood at 4.4 µM.

In the case of `Cc1cc2c(NCC#Cc3ccccc3)nc(C(F)(F)F)nc2s1` [Example 162, 6-methyl-N-(3-phenylprop-2-yn-1-yl)-2-(trifluoromethyl) thieno[2,3-d] pyrimidin-4-amine], the IC50 worked out at 6 µM.

As for `Cc1cc2c(NCC(O)Cc3ccccc3)nc(C(F)(F)F)nc2s1` (stereo not drawn) [Example 163, 1-((6-methyl-2-(trifluoromethyl)thieno[2,3-d]pyrimidin-4-yl)amino)-3-phenylpropan-2-ol], the IC50 is greater than 10 µM.

Take `Cc1cc2c(NCCCn3cccc3)nc(C(F)(F)F)nc2s1` [Example 164, N-(3-(1H-pyrrol-1-yl)propyl)-6-methyl-2-(trifluoromethyl) thieno[2,3-d] pyrimidin-4-amine]: inhibition was half-maximal at 1.7 µM (IC50).

In turn, `Cc1cc2c(NCCCN3CCCc4ccccc43)nc(C(F)(F)F)nc2s1` [Example 165, N-(3-(3,4-dihydroquinolin-1(2H)-yl)propyl)-6-methyl-2-(trifluoromethyl) thieno[2,3-d] pyrimidin-4-amine] showed an IC50 of 2 µM.

`Cc1cc2c(NCCCc3ccccc3)nc(C(F)(F)F)nc2s1` [Example 166, 6-methyl-N-(3-phenylpropyl)-2-(trifluoromethyl) thieno[2,3-d] pyrimidin-4-amine] returned an IC50 of less than 0.51 µM.

`Cc1cc2c(N[C@@H]3C[C@H]3c3ccccc3)nc(C(F)(F)F)nc2s1` [Example 167, 6-methyl-N-((1R,2S)-2-phenylcyclopropyl)-2-(trifluoromethyl) thieno[2,3-d] pyrimidin-4-amine] returned an IC50 of 0.49 µM.

On to `Cc1cc2c(N[C@H]3C[C@@H]3c3ccccc3)nc(C(F)(F)F)nc2s1` [Example 168, 6-methyl-N-((1S,2R)-2-phenylcyclopropyl)-2-(trifluoromethyl) thieno[2,3-d] pyrimidin-4-amine], for which the IC50 amounted to 3.2 µM.

For `Cc1cc2c(NC(CCc3ccccc3)C(F)(F)F)nc(C(F)(F)F)nc2s1` (stereo not drawn) [Example 169, 6-methyl-N-(1,1,1-trifluoro-4-phenylbutan-2-yl)-2-(trifluoromethyl) thieno[2,3-d] pyrimidin-4-amine], the IC50 is greater than 10 µM.

`CCc1nc(NCCC(c2ccccc2)c2ccccc2)c2cc(C)sc2n1` [Example 170, N-(3,3-diphenylpropyl)-2-ethyl-6-methylthieno[2,3-d]pyrimidin-4-amine] registered an IC50 of 0.36 µM.

`Cc1cc2c(NCCC(O)c3ccccc3)nc(C(F)(F)F)nc2s1` (stereo not drawn) [Example 171, 3-((6-methyl-2-(trifluoromethyl)thieno [2,3-d]pyrimidin-4-yl)amino)-1-phenylpropan-1-ol] had an IC50 greater than 9.5 µM.

Molecule `Cc1cc2c(NCCCN(C)c3ccccc3)nc(C(F)(F)F)nc2s1` [Example 172, N1-methyl-N3-(6-methyl-2-(trifluoromethyl)thieno[2,3-d]pyrimidin-4-yl)-N1-phenylpropane-1,3-diamine] gave a concentration for half-maximal inhibition (IC50) of 4.2 µM.

`Cc1cc2c(NCCCNc3ccccc3)nc(C(F)(F)F)nc2s1` [Example 173, N1-(6-methyl-2-(trifluoromethyl)thieno[2,3-d]pyrimidin-4-yl)-N3-phenylpropane-1,3-diamine] came in with an IC50 of 3.3 µM.

The molecule `Cc1cc2c(NCCCn3ccc4ccccc43)nc(C(F)(F)F)nc2s1` [Example 177, N-(3-(1H-indol-1-yl)propyl)-6-methyl-2-(trifluoromethyl) thieno[2,3-d] pyrimidin-4-amine] registered an IC50 of 4.7 µM.

Consider `Cc1cc2c(NCCCc3ccc(N(C)C)cc3)nc(C(F)(F)F)nc2s1` [Example 178, N-(3-(4-(dimethylamino)phenyl)propyl)-6-methyl-2-(trifluoromethyl) thieno[2,3-d] pyrimidin-4-amine], for which half-maximal inhibition (IC50) required 1.3 µM.

Take `Cc1cc2c(NCCCc3cccc(C(F)(F)F)c3)nc(C(F)(F)F)nc2s1` [Example 179, 6-methyl-2-(trifluoromethyl)-N-(3-(3-(trifluoromethyl)phenyl)propyl) thieno[2,3-d] pyrimidin-4-amine]: 1.7 µM corresponded to half-maximal inhibition (IC50).

`Cc1cc2c(NCCc3ccc4ccccc4n3)nc(C(F)(F)F)nc2s1` [Example 180, 6-methyl-N-(2-(quinolin-2-yl)ethyl)-2-(trifluoromethyl) thieno[2,3-d] pyrimidin-4-amine] showed an IC50 greater than 10 µM.

Turning to `Cc1cc2c(N[C@@H]3C[C@H]3c3ccc(F)cc3)nc(C(F)(F)F)nc2s1` [Example 181, N-((1R,2S)-2-(4-fluorophenyl)cyclopropyl)-6-methyl-2-(trifluoromethyl) thieno[2,3-d] pyrimidin-4-amine], the midpoint of inhibition, the IC50, lay at 1.3 µM.

In the case of `Cc1cc2c(NCCC(=O)Nc3ccccc3)nc(C(F)(F)F)nc2s1` [Example 182, 3-((6-methyl-2-(trifluoromethyl)thieno[2,3-d]pyrimidin-4-yl)amino)-N-phenylpropanamide], the IC50 is greater than 10 µM.

Molecule `Cc1cc2c(NCCn3cccc3)nc(C(F)(F)F)nc2s1` [Example 183, N-(2-(1H-pyrrol-1-yl)ethyl)-6-methyl-2-(trifluoromethyl) thieno[2,3-d]pyrimidin-4-amine] returned an IC50 greater than 10 µM.

On to `Cc1cc2c(NCCCc3ccc(O)cc3)nc(C(F)(F)F)nc2s1` [Example 184, 4-(3-((6-methyl-2-(trifluoromethyl)thieno[2,3-d]pyrimidin-4-yl)amino)propyl) phenol], for which the IC50 was greater than 10 µM.

In turn, `Cc1cc2c(NCCCc3ccc(F)cc3)nc(C(F)(F)F)nc2s1` [Example 185, N-(3-(4-fluorophenyl)propyl)-6-methyl-2-(trifluoromethyl) thieno[2,3-d] pyrimidin-4-amine] gave an IC50 of 2.3 µM.

In turn, `Cc1cc2c(NCC(C)(C)Cc3ccccc3)nc(C(F)(F)F)nc2s1` [Example 186, N-(2,2-dimethyl-3-phenylpropyl)-6-methyl-2-(trifluoromethyl) thieno[2,3-d] pyrimidin-4-amine] had an IC50 greater than 10 µM.

With `Cc1cc2c(NCCC(C)c3ccccc3)nc(C(F)(F)F)nc2s1` (stereo not drawn) [Example 187, 6-methyl-N-(3-phenylbutyl)-2-(trifluoromethyl) thieno[2,3-d] pyrimidin-4-amine], the IC50 is 9.1 µM.
